What was measured:
Assay in all cases: relative viability (nuclei count vs DMSO), 5 days (fraction); higher = more cells survive
Irinotecan + Pictilisib = compound: CCc1c2c(nc3ccc(OC(=O)N4CCC(N5CCCCC5)CC4)cc13)-c1cc3c(c(=O)n1C2)COC(=O)[C@]3(O)CC [Irinotecan] + CS(=O)(=O)N1CCN(Cc2cc3nc(-c4cccc5[nH]ncc45)nc(N4CCOCC4)c3s2)CC1 [Pictilisib] (partner 1 µM)
How it was run: (§1)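 Medians of duplicate plates are given as relative viability. That measure is the nuclei count in treated wells divided by the count in vehicle wells. Counts were taken on 4× images of lung cancer cell lines in 1536-well plates, 5 days after pin-tool dosing the day after seeding with one drug alone or a fixed anchor-drug dose plus five library-drug doses (not always all listed) in √10 steps.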

MK-8033 + Lapatinib = compound: Cn1cc(-c2cnc3ccc4ccc(CS(=O)(=O)NCc5ccccn5)cc4c(=O)c3c2)cn1 [MK-8033] + CS(=O)(=O)CCNCc1ccc(-c2ccc3ncnc(Nc4ccc(OCc5cccc(F)c5)c(Cl)c4)c3c2)o1 [Lapatinib] (partner 2 µM)
How it was run: as §1

MK-8033 + Luminespib = compound: Cn1cc(-c2cnc3ccc4ccc(CS(=O)(=O)NCc5ccccn5)cc4c(=O)c3c2)cn1 [MK-8033] + CCNC(=O)c1noc(-c2cc(C(C)C)c(O)cc2O)c1-c1ccc(CN2CCOCC2)cc1 [Luminespib] (partner 0.01 µM)
How it was run: as §1

RU-SKI 43 + Dasatinib = compound: CC[C@@H](C)CNCC(=O)N1CCC2=C([C@@H]1COC3=CC=CC(=C3)C)C=CS2 [RU-SKI 43] + Cc1nc(Nc2ncc(C(=O)Nc3c(C)cccc3Cl)s2)cc(N2CCN(CCO)CC2)n1 [Dasatinib] (partner 0.075 µM)
How it was run: as §1

| Cell Line | relative viability (Irinotecan + Pictilisib; first compound 0.6325 µM) | relative viability (Irinotecan + Pictilisib; first compound 2 µM) | relative viability (Irinotecan + Pictilisib; first compound 6.325 µM) | relative viability (Irinotecan + Pictilisib; first compound 20 µM) | relative viability (MK-8033 + Lapatinib; first compound 0.02 µM) | relative viability (MK-8033 + Lapatinib; first compound 0.06325 µM) | relative viability (MK-8033 + Lapatinib; first compound 0.2 µM) | relative viability (MK-8033 + Lapatinib; first compound 0.6325 µM) | relative viability (MK-8033 + Lapatinib; first compound 2 µM) | relative viability (MK-8033 + Luminespib; first compound 0.02 µM) | relative viability (MK-8033 + Luminespib; first compound 0.06325 µM) | relative viability (MK-8033 + Luminespib; first compound 0.2 µM) | relative viability (MK-8033 + Luminespib; first compound 0.6325 µM) | relative viability (MK-8033 + Luminespib; first compound 2 µM) | relative viability (RU-SKI 43 + Dasatinib; first compound 0.1 µM) | relative viability (RU-SKI 43 + Dasatinib; first compound 0.3162 µM) | relative viability (RU-SKI 43 + Dasatinib; first compound 1 µM) | relative viability (RU-SKI 43 + Dasatinib; first compound 3.162 µM) | relative viability (RU-SKI 43 + Dasatinib; first compound 10 µM) |
| --- | --- | --- | --- | --- | --- | --- | --- | --- | --- | --- | --- | --- | --- | --- | --- | --- | --- | --- | --- |
| EMC-BAC-2 | 0.37 | 0.373 | 0.234 | 0.223 | 0.954 | 0.792 | 0.859 | 0.959 | 0.876 | 1.2 | 1.07 | 1.12 | 1.16 | 1.12 | 0.334 | 0.299 | 0.362 | 0.317 | 0.296 |
| ChaGo-K-1 | – | 0.645 | 0.523 | 0.161 | – | – | – | – | – | 0.679 | 0.696 | 0.562 | 0.636 | 0.516 | 0.651 | 0.532 | 0.574 | 0.492 | 0.502 |
| LXF-289 | 0.745 | 0.7 | 0.206 | 0.158 | 0.902 | 0.907 | 0.874 | 0.917 | 0.875 | 0.66 | 0.654 | 0.591 | 0.665 | 0.643 | 0.217 | 0.21 | 0.218 | 0.231 | 0.187 |
| HCC-827 | 0.878 | 0.59 | 0.548 | 0.388 | 0.195 | – | 0.188 | 0.184 | 0.218 | 0.43 | – | 0.591 | 0.59 | 1.07 | 0.249 | 0.267 | 0.319 | 0.298 | 0.331 |
| HCC-44 | 0.657 | 0.438 | 0.221 | 0.404 | 1.02 | 1.02 | 0.943 | 0.999 | 1 | 1.06 | 1.02 | 1.01 | 1.3 | 1.05 | – | – | – | – | – |
| NCI-H2023 | 0.148 | 0.204 | 0.113 | 0.0527 | 0.923 | 0.701 | 0.624 | 0.59 | 0.523 | 0.758 | 0.652 | 0.652 | 0.693 | 0.634 | 0.581 | 0.835 | 0.649 | 0.599 | 0.61 |
| NCI-H1734 | 0.298 | 0.446 | 0.16 | 0.184 | 1.11 | 0.88 | 1.02 | 1.09 | 1.01 | 0.173 | 0.177 | 0.176 | 0.182 | 0.17 | 0.384 | 0.451 | 0.478 | 0.444 | 0.343 |
| PC-14 | 0.652 | 0.425 | 0.257 | 0.194 | 0.338 | 0.25 | 0.305 | 0.31 | 0.294 | 0.125 | 0.128 | 0.131 | 0.174 | 0.224 | 0.242 | 0.25 | 0.283 | 0.241 | 0.183 |
| NCI-H3122 | 0.514 | 0.349 | 0.202 | 0.174 | 1.03 | 0.98 | 1.01 | 1.01 | 0.993 | 0.0907 | 0.0983 | 0.0777 | 0.0917 | 0.0881 | 0.959 | 0.913 | 0.806 | 0.778 | 0.838 |
| SW 1573 | 0.435 | 0.37 | 0.173 | 0.155 | 1.06 | 1.09 | 0.976 | 1.14 | 0.994 | 0.178 | 0.206 | 0.719 | 0.366 | 0.185 | 0.558 | 0.816 | 0.497 | 0.491 | 0.311 |
| NCI-H2342 | – | – | – | – | – | – | – | – | – | 0.774 | 0.643 | 0.805 | 0.631 | 0.651 | 0.34 | 0.313 | 0.321 | 0.319 | 0.317 |
| HCC-15 | 0.186 | 0.286 | 0.137 | 0.167 | 0.849 | 0.801 | 0.785 | 0.805 | 0.856 | 0.281 | 0.397 | 0.263 | 0.253 | 0.307 | 0.709 | 0.635 | 0.689 | 0.633 | 0.64 |
| NCI-H1666 | 0.559 | 0.338 | 0.409 | 0.311 | 0.708 | 0.505 | 0.519 | 0.656 | 0.587 | 1 | 0.987 | 0.979 | 1.03 | 0.924 | 0.772 | 0.922 | 0.799 | 0.763 | 0.699 |
| NCI-H460 | 0.328 | 0.314 | 0.0912 | 0.0812 | 0.968 | 0.897 | 0.907 | 1.13 | 0.793 | 0.0295 | 0.038 | 0.0269 | 0.0415 | 0.0328 | 0.505 | 0.592 | 0.652 | 0.573 | 0.51 |
| IA-LM | 0.367 | 0.234 | 0.265 | 0.116 | 0.682 | 0.636 | 0.66 | 0.633 | 0.773 | – | – | – | – | – | – | – | – | – | – |
| SW 900 | – | – | – | – | – | – | – | – | – | 0.147 | 0.175 | 0.177 | 0.18 | 0.187 | 0.565 | 0.679 | 0.769 | 0.46 | 0.423 |
| NCI-H441 | 0.434 | 0.314 | 0.216 | 0.32 | – | – | – | – | – | 0.403 | 0.375 | 0.352 | 0.336 | 0.305 | 0.615 | 0.656 | 0.553 | 0.582 | 0.386 |
| NCI-H1703 | 0.236 | 0.308 | 0.381 | 0.221 | 1.04 | 1.04 | 0.99 | 0.912 | 1.05 | – | – | – | – | – | – | – | – | – | – |
| NCI-H1299 | 0.516 | 0.563 | 0.256 | 0.0872 | 0.989 | 0.947 | 0.964 | 0.965 | 0.982 | – | – | – | – | – | – | – | – | – | – |
| HCC-366 | 0.181 | 0.142 | 0.0733 | 0.0469 | 1.04 | 0.994 | 0.972 | 1.05 | 1.05 | – | – | – | – | – | 0.61 | 0.955 | 0.715 | 0.698 | 0.476 |

Reference: the supplement of paper PMC10307832
